Source: patent US12172995B2, “Substituted indole and indazole compounds” (BRISTOL-MYERS SQUIBB COMPANY, priority 2018, dated 2024)

Tests used:
Format in all cases: cell-based
human TLR8 = target: T1, human TLR8 (Homo sapiens, UniProt Q9NR97); assay: TLR8 inhibition reporter assay (HEK-Blue SEAP); conditions: HEK-Blue cells overexpressing human TLR8, stimulated with R848 15.9 μM, 22 hour incubation
T1 construct: host or cells: HEK-Blue cells
T1 sequence (Q9NR97 27-1041): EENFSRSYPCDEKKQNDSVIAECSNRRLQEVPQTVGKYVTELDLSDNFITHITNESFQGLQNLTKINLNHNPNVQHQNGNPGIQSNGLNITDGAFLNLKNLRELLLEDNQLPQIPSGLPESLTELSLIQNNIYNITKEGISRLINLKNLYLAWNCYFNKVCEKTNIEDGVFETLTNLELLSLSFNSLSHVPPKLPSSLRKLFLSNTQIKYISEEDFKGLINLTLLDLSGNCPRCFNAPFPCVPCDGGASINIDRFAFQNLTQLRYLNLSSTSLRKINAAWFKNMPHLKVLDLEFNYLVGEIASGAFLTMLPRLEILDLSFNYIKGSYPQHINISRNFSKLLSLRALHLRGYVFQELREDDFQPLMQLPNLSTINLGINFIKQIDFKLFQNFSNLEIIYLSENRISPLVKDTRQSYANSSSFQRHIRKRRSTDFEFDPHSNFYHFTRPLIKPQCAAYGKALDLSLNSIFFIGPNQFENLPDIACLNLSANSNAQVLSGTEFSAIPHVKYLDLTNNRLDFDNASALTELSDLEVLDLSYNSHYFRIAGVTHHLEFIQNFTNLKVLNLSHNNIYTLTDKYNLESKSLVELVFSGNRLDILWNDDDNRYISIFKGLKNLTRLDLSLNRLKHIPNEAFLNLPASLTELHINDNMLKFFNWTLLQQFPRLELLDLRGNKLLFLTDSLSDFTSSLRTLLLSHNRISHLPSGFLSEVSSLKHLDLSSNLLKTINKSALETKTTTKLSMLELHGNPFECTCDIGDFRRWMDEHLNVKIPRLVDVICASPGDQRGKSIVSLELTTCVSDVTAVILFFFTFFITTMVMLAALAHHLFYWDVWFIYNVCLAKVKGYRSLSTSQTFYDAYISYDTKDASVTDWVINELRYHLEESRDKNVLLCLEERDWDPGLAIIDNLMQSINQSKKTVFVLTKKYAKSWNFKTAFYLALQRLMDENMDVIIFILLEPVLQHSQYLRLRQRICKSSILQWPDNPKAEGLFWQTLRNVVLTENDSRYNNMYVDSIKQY
How it was run: (§1)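 Cells are seeded, given test compound across 0.05 nM to 50 μM, and after 30 min at room temperature stimulated with the receptor's agonist (gardiquimod 7.5 μM, R848 15.9 μM or ODN2006 5 nM for TLR7, 8, 9). SEAP is measured after 22 h at 37 °C.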

human TLR9 = target: T2, human TLR9 (Homo sapiens, UniProt Q9NR96); assay: TLR9 inhibition reporter assay (HEK-Blue SEAP); conditions: HEK-Blue cells overexpressing human TLR9, stimulated with ODN2006 5 nM, 22 hour incubation
T2 construct: host or cells: HEK-Blue cells
T2 sequence (Q9NR96 26-1032): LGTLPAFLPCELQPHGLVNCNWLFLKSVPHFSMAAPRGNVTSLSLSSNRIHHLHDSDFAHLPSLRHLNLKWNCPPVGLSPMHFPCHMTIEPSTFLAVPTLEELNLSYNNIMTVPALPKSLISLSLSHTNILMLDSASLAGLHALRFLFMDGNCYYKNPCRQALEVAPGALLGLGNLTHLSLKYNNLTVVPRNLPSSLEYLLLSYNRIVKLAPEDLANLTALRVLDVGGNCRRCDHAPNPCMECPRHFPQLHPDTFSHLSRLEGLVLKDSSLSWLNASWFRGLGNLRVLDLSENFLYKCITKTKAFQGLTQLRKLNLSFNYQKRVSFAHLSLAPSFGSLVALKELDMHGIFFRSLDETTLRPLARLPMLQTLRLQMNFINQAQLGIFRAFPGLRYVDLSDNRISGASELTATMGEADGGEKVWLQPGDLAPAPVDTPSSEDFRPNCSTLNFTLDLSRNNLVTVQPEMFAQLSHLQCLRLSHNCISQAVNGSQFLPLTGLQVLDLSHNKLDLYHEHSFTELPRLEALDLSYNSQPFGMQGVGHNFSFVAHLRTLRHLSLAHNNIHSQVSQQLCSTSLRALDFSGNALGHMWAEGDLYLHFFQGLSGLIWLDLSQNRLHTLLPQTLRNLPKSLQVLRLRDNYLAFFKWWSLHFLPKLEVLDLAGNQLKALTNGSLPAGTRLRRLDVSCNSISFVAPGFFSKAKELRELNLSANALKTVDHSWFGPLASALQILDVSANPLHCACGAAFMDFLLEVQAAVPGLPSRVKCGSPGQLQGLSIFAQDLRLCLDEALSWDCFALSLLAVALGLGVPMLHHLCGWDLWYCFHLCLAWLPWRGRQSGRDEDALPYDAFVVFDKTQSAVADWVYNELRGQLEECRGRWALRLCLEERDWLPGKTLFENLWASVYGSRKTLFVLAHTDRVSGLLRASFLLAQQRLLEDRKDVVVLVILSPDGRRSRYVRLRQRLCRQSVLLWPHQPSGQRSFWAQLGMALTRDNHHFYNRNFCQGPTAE
How it was run: as §1

human TLR7 = target: T3, human TLR7 (Homo sapiens, UniProt Q9NYK1); assay: TLR7 inhibition reporter assay (HEK-Blue SEAP); conditions: HEK-Blue cells overexpressing human TLR7, stimulated with gardiquimod 7.5 μM, 22 hour incubation
T3 construct: host or cells: HEK-Blue cells
T3 sequence (Q9NYK1 27-1049): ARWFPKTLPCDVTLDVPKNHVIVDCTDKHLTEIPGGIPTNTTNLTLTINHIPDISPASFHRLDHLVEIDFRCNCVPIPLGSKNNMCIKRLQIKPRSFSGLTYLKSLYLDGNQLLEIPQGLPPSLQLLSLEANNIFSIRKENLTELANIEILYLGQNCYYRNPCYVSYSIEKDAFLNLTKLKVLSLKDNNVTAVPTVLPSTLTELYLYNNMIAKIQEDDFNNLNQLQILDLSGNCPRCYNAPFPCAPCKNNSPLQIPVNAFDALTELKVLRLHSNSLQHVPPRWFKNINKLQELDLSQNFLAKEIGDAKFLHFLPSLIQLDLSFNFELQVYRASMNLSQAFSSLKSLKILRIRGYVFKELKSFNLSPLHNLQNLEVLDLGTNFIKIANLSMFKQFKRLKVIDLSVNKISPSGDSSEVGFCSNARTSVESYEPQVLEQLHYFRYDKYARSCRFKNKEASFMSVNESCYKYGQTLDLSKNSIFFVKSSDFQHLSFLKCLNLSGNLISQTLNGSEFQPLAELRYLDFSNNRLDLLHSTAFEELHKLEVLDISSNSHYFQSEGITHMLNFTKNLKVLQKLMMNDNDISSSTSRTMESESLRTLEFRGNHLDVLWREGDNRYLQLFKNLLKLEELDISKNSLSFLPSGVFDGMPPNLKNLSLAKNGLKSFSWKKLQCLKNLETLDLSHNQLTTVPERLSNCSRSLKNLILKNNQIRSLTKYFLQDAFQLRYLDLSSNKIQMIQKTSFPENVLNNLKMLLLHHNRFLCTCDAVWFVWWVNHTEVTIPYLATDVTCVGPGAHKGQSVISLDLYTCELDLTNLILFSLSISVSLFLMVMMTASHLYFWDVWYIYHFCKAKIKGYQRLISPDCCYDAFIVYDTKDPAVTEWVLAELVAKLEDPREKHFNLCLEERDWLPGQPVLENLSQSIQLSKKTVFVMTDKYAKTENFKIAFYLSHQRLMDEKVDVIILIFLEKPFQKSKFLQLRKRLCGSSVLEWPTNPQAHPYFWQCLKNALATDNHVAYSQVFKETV
How it was run: as §1

Compound | IC50 (human TLR8) [nM] | IC50 (human TLR9) [nM] | IC50 (human TLR7) [nM]
Cc1cc(-c2cc(C)c3ncnn3c2)cc2[nH]nc(C3CCCNC3)c12 (stereo not drawn) [Example 51, 8-methyl-6-(4-methyl-3-(piperidin-3-yl)-1H-indazol-6-yl)-[1,2,4]triazolo[1,5-a]pyridine] | 19.6 | 287 | 4.7
Cc1cc2c(C3CCCN(C(=O)CN(C)C)C3)n[nH]c2cc1-c1cc(C)c2ncnn2c1 (stereo not drawn) [Example 56, 2-(dimethylamino)-1-(3-(5-methyl-6-(8-methyl-[1,2,4]triazolo[1,5-a]pyridin-6-yl)-1H-indazol-3-yl)piperidin-1-yl)ethan-1-one] | 1.7 | 4940 | 12.2
COc1cc(-c2cc3[nH]nc(C4CCC(N(C)C)CC4)c3cc2C(C)C)cn2ncnc12 (single isomer, unassigned) [Example 140, 4-(5-isopropyl-6-(8-methoxy-[1,2,4]triazolo[1,5-a]pyridin-6-yl)-1H-indazol-3-yl)-N,N-dimethylcyclohexan-1-amine] | 0.1 | 3430 | 0.2
CCc1cc2c(C3CCC(NCC(=O)N(C)C)CC3)n[nH]c2cc1-c1cc(C)c2ncnn2c1 (stereo not drawn) [Example 96, 2-((4-(5-ethyl-6-(8-methyl-[1,2,4]triazolo[1,5-a]pyridin-6-yl)-1H-indazol-3-yl)cyclohexyl)amino)-N,N-dimethylacetamide] | 0.2 | 16000 | 3
Cc1cc(-c2cc3[nH]nc(C4CCC(N5CCC6(CCOC6)C5)CC4)c3cc2C(C)C)cn2ncnc12 (single isomer, unassigned) [Example 209, 7-(4-(5-isopropyl-6-(8-methyl-[1,2,4]triazolo[1,5-a]pyridin-6-yl)-1H-indazol-3-yl)cyclohexyl)-2-oxa-7-azaspiro[4.4]nonane] | 0.05 | 8000 | 0.62
Cc1cc(-c2cc(C)c3ncnn3c2)cc2[nH]nc(OC3CCN(C(=O)CN(C)C)CC3)c12 [Example 175, 2-(dimethylamino)-1-(4-((4-methyl-6-(8-methyl-[1,2,4]triazolo[1,5-a]pyridin-6-yl)-1H-indazol-3-yl)oxy)piperidin-1-yl)ethan-1-one] | 10.6 | 1630 | 5.1
Cc1cc(-c2cc3[nH]nc(C4CCN(CC(=O)N(C)C)CC4)c3cc2C(C)C)cn2ncnc12 [Example 112, 2-(4-(5-isopropyl-6-(8-methyl-[1,2,4]triazolo[1,5-a]pyridin-6-yl)-1H-indazol-3-yl)piperidin-1-yl)-N,N-dimethylacetamide] | 0.3 | 20900 | 1.5
Cc1cc(-c2cc3[nH]nc(C4CCC(NC5CC5)CC4)c3cc2C(C)C)cn2ncnc12 (single isomer, unassigned) [Example 119, N-cyclopropyl-4-(5-isopropyl-6-(8-methyl-[1,2,4]triazolo[1,5-a]pyridin-6-yl)-1H-indazol-3-yl)cyclohexan-1-amine] | 0.1 | 4920 | 1
Cc1cc(-c2cc(C)c3ncnn3c2)cc2[nH]nc(OC3CCC(NCCS(C)(=O)=O)CC3)c12 (stereo not drawn) [Example 187, 4-((4-methyl-6-(8-methyl-[1,2,4]triazolo[1,5-a]pyridin-6-yl)-1H-indazol-3-yl)oxy)-N-(2-(methylsulfonyl)ethyl)cyclohexan-1-amine] | 4.9 | 1820 | 11.3

More lines, now with the values ahead:

IC50 (human TLR8) [nM] | IC50 (human TLR9) [nM] | IC50 (human TLR7) [nM] | Compound
2.5 | 2840 | 3.8 | Cc1cc(-c2cc(C)c3ncnn3c2)cc2[nH]nc(C3CCC(N(C)C)CC3)c12 (stereo not drawn) [Example 80, N,N-dimethyl-4-(4-methyl-6-(8-methyl-[1,2,4]triazolo[1,5-a]pyridin-6-yl)-1H-indazol-3-yl) cyclohexan-1-amine]
13.5 | 1560 | 4.9 | Cc1cc(-c2cc(C)c3ncnn3c2)cc2[nH]nc(C3CCCN(C(=O)CN(C)C)C3)c12 (stereo not drawn) [Example 5, 2-(dimethylamino)-1-(3-(4-methyl-6-(8-methyl-[1,2,4]triazolo[1,5-a]pyridin-6-yl)-1H-indazol-3-yl)piperidin-1-yl)ethan-1-one]
0.8 | 3100 | 29.7 | Cc1cc2c(C3CCC(NC4COC4)CC3)n[nH]c2cc1-c1cc(C)c2ncnn2c1 (single isomer, unassigned) [Example 35, N-(4-(5-methyl-6-(8-methyl-[1,2,4]triazolo[1,5-a]pyridin-6-yl)-1H-indazol-3-yl)cyclohexyl)oxetan-3-amine]
1.7 | 16700 | 10.3 | CCc1cc2c(C3CCN(C(=O)CCCN(C)C)CC3)n[nH]c2cc1-c1cc(C)c2ncnn2c1 [Example 107, 4-(dimethylamino)-1-(4-(5-ethyl-6-(8-methyl-[1,2,4]triazolo[1,5-a]pyridin-6-yl)-1H-indazol-3-yl)piperidin-1-yl)butan-1-one]
